Reference: the NIST ThermoML archive (doi:10.1021/je400535t)

Experiment: molar heat capacity at constant pressure
Details: 101.33 kPa, Crystal, Small (less than 1 g) adiabatic calorimetry

O=C([O][Sb]([O]C(=O)C12CC3CC(CC(C3)C1)C2)([c]1ccccc1)([c]1ccccc1)[c]1ccccc1)C12CC3CC(CC(C3)C1)C2
Details	molar heat capacity at constant pressure [J/K/mol]
5 K	2.04
6.41 K	4.28
6.94 K	5
7.48 K	6.19
8.31 K	8.15
9.04 K	10
9.66 K	11.6
10 K	12.5
10.2 K	13.1
10.77 K	14.6
11.22 K	16
11.69 K	17.3
12.18 K	18.9
12.78 K	20.8
13.14 K	22
13.61 K	23.6
14.14 K	25.5
14.53 K	26.8
15 K	28.4
15.03 K	28.42
15.43 K	29.84
15.87 K	31.16
16.49 K	33.38
17.1 K	35.31
17.71 K	37.46
18.32 K	39.7
18.89 K	41.48
19.52 K	43.6
20 K	45.29
20.03 K	45.33
21.3 K	50
21.81 K	51.4
22.55 K	53.73
23.78 K	58.14
24.3 K	60.3
25 K	62.48
25.02 K	62.63
26.25 K	66.95
26.83 K	69
27.53 K	71.5
28.8 K	76.1
29.43 K	78.2
30 K	80.54
30.12 K	81.06
31.46 K	85.96
32.84 K	90.86
33.37 K	92.7
34.23 K	95.66
35 K	98.3
35.64 K	100.4
37.11 K	105.3
38.61 K	110.2
39.32 K	112.6
40 K	114.6
40.13 K	115
41.68 K	119.9
43.2 K	124.6
44.84 K	129.5
45 K	130
46.46 K	134.4
48.11 K	139.3
49.81 K	144.3
50 K	144.9
51.54 K	149.4
53.3 K	154.6
55.08 K	159.8
56.92 K	165
58.79 K	170.2
60 K	173.4
60.68 K	175.3
62.61 K	180.4
64.56 K	185.5
65.56 K	188.2
66.56 K	190.7
67.71 K	194
68.61 K	196.1
69.83 K	198.9
70 K	199.7
71.36 K	203.1
72.79 K	206.9
74.91 K	212.3
76.18 K	214.9
77.05 K	217.4
79.88 K	223.6
80 K	223.8
82.03 K	228.1
82.81 K	229.3
84.2 K	232.4
84.88 K	233.7
86.94 K	238
87.67 K	240.1
89 K	242.4
90 K	244.7
90.77 K	246
91.06 K	246.7
93.12 K	251.6
93.18 K	251.3
95.1 K	255.9
97.23 K	260.6
99.29 K	265.2
100 K	266.9
101.34 K	269.7
103.39 K	274.4
105.44 K	279.4
107.49 K	283.8
109.54 K	288
110 K	289.1
111.58 K	292.9
113.6 K	297.5
115.64 K	301.6
117.68 K	306.6
119.72 K	310.6
120 K	311.3
121.6 K	314.8
123.78 K	319.2
125.8 K	323.9
127.83 K	328.3
129.85 K	332.6
130 K	333.5
131.86 K	337.5
133.87 K	341.8
135.88 K	346.7
137.88 K	351.3
